B1: pMpaRS: EcTyrRS variant Y37V/D182S/F183M that charges BstRNACUA^Tyr with pMpa (protein, UniProt P0AGJ9 2-424, looked up, variant Y37V D182S F183M)
Tyrosine--tRNA ligase: ASSNLIKQLQERGLVAQVTDEEALAERLAQGPIALVCGFDPTADSLHLGHLVPLLCLKRFQQAGHKPVALVGGATGLIGDPSFKAAERKLNTEETVQEWVDKIRKQVAPFLDFDCGENSAIAANNYDWFGNMNVLTFLRDIGKHFSVNQMINKEAVKQRLNREDQGISFTEFSYNLLQGYSMACLNKQYGVVLQIGGSDQWGNITSGIDLTRRLHQNQVFGLTVPLITKADGTKFGKTEGGAVWLDPKKTSPYKFYQFWINTADADVYRFLKFFTFMSIEEINALEEEDKNSGKAPRAQYVLAEQVTRLVHGEEGLQAAKRITECLFSGSLSALSEADFEQLAQDGVPMVEMEKGADLMQALVDSELQPSRGQARKTIASNAITINGEKQSDPEYFFKEEDRLFGRFTLLRRGKKNYCLICWK

What was measured:
[1] = Decay of azido amino acid seen in tandem MS of mutant GFP; type: physicochemical; conditions: mutant GFP containing pAzpa; azido group chemically reactive and photo-unstable
Experimental: The mutant GFP containing pAzpa was only weakly detectable. […] The data from all five mutant proteins indicate the high selectivity and fidelity of the incorporation of unnatural amino acids.
(§1) Nano-RP LC/MS/MS was performed with an HPLC pump, autosampler (Agilent Technologies, Palo Alto, Calif.), and an LTQ Orbitrap hybrid mass spectrometer (ThermoElectron, San Jose, Calif.). Tryptic digests were loaded with a pressure bomb onto a 75 μm i.d. precolumn packed with 4 cm of 5-μm Monitor C18 particles (Column Engineering, Ontario, Calif.) at a flow rate of approximately 2 μl/min. The precolumn was then connected to the HPLC pump and after several minutes of washing with solvent A the analytical column with integrated emitter tip (360 μm O.D.×75 μm i.d; 10 cm of 5 μM C18, ˜5-μm tip) was connected in series. The chromatographic profile was from 100% solvent A (0.1% aqueous acetic acid) to 50% solvent B (0.1% acetic acid in acetonitrile) in 40 min; the flow rate through the analytical column was ca. 100 nl/min.

position 37 of GFP = experiment: Fidelity of unnatural amino acid incorporation by mass spectrometry (nano-RP LC/MS/MS, ESI TOF-MS); conditions: nano-RP LC/MS/MS of tryptic fragments, mutant GFP from T-REx CHO cells
Excerpt: To further characterize GFP-pMpa, the mutant protein was expressed in T-REx™ CHO cells transiently transfected with both pSWAN-pMpaRS and pSWAN-GFP37TAG. The protein was purified using an anti-myc antibody agarose column and then separated by SDS-PAGE. The GFP-pMpa band from the SDS-PAGE gel was digested with trypsin and analyzed by nanoscale reversed-phase liquid chromatography/mass spectrometry/mass spectrometry (nano-RP LC/MS/MS). In parallel, wild type GFP was purified from cells transfected with pcDNA4-GFP and subjected to the same analysis.
Proteolysis of affinity purified proteins (performed for wild-type and pBpa samples) was carried out by overnight incubation of proteins at 37° C. with sequencing-grade modified trypsin (Promega) using a substrate/enzyme ratio of 10:1 (wt/wt) based on the estimated protein concentration in 100 mM triethylammonium bicarbonate buffer (pH 8.5). In-gel digestions (performed for pMpa, pAzpa, pApa, and pPpa samples) were performed according to a modified EMBL procedure (see the website for EMBL, Heidelberg, Germany, Bioanalytical Research Group). Briefly, gel slices were excised to approximately 1 mm×1 mm cubes, washed for 5 minutes with water, 15 minutes with acetonitrile, and dried in a vacuum centrifuge before being rehydrated at 0° C. for 30 minutes with 12.5 ng/μl of sequencing-grade modified trypsin in 50 mM triethylammonium bicarbonate buffer (pH 8.5). Excess buffer was removed and 20 μl of 50 mM triethylammonium bicarbonate buffer (pH 8.5) was added to the gel slices before incubating at 37° C. overnight. Peptides were extracted from the gel slices as described in the protocol.
as §1
For data-dependent experiments, the mass spectrometer was programmed to first record a high-resolution Orbitrap scan then a full-scan ion trap spectrum (m/z 500-2,000). This was followed by 10 data-dependent MS/MS scans (relative collision energy=35%; 3-Da isolation window) triggered of the ion-trap scan and finally two targeted MS/MS scans. The first targeted MS/MS scan was set to isolate and fragment the doubly charged precursor ion of the predicted unnatural amino acid modified peptide
at m/z 752.3. The raw data were searched against the MSDB database using MASCOT (Matrixscience, London, UK) for protein identification and to find the scans containing the target peptides with the unnatural amino acids as variable modification. To estimate fidelity at Y*37 of GFP-pMpa, single ion chromatograms (doubly charged precursor ions at m/z 752.3 for the wt and 759.3 for pMpa) and selected ion chromatograms (y9, y11, and y12) were integrated using the Xcalibur software package (ThermoElectron, San Jose, Calif.).
Intact protein mass spectra were acquired on an automated LC/MS system (Waters, Milford, Mass.) consisting of a capillary LC with auto-sampler and a QTOF2 mass spectrometer. GFP-pMpa (0.1 mg/ml) was loaded onto a reversed-phase protein Captrap (Michrom Bioresources, Auburn, Calif.) for desalting with 0.1% acetic acid in water and eluted with 80% acetonitrile/0.1% acetic acid at 5 μl/min into the ESI source of the mass spectrometer. […]

T-REx™ CHO cells = experiment: Yield of purified mutant GFP containing unnatural amino acid (pSWAN two-plasmid system); type: cell-based, Chinese hamster; conditions: pMpa 10 mM, pApa 10 mM, pBpa 1 mM, pAzpa 5 mM, pPpa 1 mM in media, anti-myc column purified
Excerpt: The pMpaRS gene was inserted directly after the non-regulated CMV promoter for efficient and continuous expression of pMpaRS. Another plasmid (pSWAN-GFP37TAG in FIG. 4B) containing both three tandem repeats of the BstRNACUA^Tyr gene and the GFP37TAG gene was also constructed. The gene encoding GFP37TAG was inserted after a Tet-regulated CMV promoter to minimize potential read-through of the nonsense amber codon caused by endogenous amber suppression in mammalian cells. These two plasmids were then assayed for their suppression efficiency. Because both plasmids contain three tandem repeats of the BstRNACUA^Tyr gene, varying the ratio of the two plasmids to increase the suppression level is not expected to change the total amount of the BstRNACUA^Tyr gene transfected into cells. Under optimized transfection conditions (0.5 μg of pSWAN-pMpaRS and 2.5 μg pSWAN-GFP37TAG per 2×10^6 cells), the suppression level is roughly two-fold higher than that using the three plasmids pUC18-3BstRNACUA^Tyr, pcDNA4-pMpaRS, and pcDNA4-GFP37TAG (the suppression level was determined by the number of fluorescent cells). Cells were grown for 1-2 days after induction and kept viable before harvesting. The yield of mutant GFP containing pMpa (GFP-pMpa) was also quantified. In the presence of 10 mM pMpa in the growth media, 1 μg of mutant GFP can be obtained from 2×10^7 adhesive T-REx™ CHO cells.
Transient transfection of T-REx™ CHO and 293 cells with the pSWAN-EcTyrRS variants and pSWAN-GFP37TAG (0.5 μg of pSWAN-EcTyrRS variant and 2.5 μg of pSWAN-GFP37TAG per 2×10^6 cells) all afforded roughly two-fold higher suppression levels than for the three plasmids pUC18-3BstRNACUA^Tyr, pcDNA4-EcTyrRS variant, and pcDNA4-GFP37TAG (with the exception of the pIpa specific variant). Mutant GFPs containing pApa, pBpa, pAzpa or pPpa were also expressed in T-REx™ CHO cells transfected with the pSWAN-EcTyrRS variants and pSWAN-GFP37TAG and grown in media containing the corresponding unnatural amino acid (pApa, 10 mM; pBpa, 1 mM; pAzpa, 5 mM; or pPpa, 1 mM) for 1-2 days, and purified using an anti-myc antibody column. The yields of the mutant proteins containing pApa and pAzpa were close to that for pMpa (˜1 μg per 2×10^7 cells), and the yields of mutant proteins containing pBpa and pPpa were somewhat lower (˜0.7 μg per 2×10^7 cells). Because the expression levels of EcTyrRS variants in T-REx™ CHO cells are similar, the lower yield of the mutant proteins containing pBpa and pPpa may be due to the low concentrations of unnatural amino acids in the media.
pSWAN-EcTyrRS variants and pSWAN-GFP37TAG were used to express mutant GFPs containing unnatural amino acids. T-REx™ CHO cells (Invitrogen™) were grown in 75 cm^2 tissue culture flasks (BD Biosciences) to 80-90% confluency and transfected with 2 μg of pSWAN-EcTyrRS and 10 μg pSWAN-GFP37TAG using […] FuGENE® 6. After overnight incubation, the media were changed to the fresh media containing the unnatural amino acid (pMpa, 10 mM; pApa, 10 mM; pBpa, 1 mM; pAzpa, 5 mM; and pPpa, 1 mM) and 1 μg/ml tetracycline. Cells were then grown for 1-2 days at 37° C. before harvesting, and then lysed with RIPA lysis buffer. The supernatant from the cell lysate was dialyzed against and equilibrated with PBS buffer before loading onto an anti-myc antibody agarose column (Sigma). The column was washed with 15 column volumes of PBS buffer and then eluted with 0.1 M ammonium hydroxide. The purified proteins were neutralized with 0.1 M acetic acid and analyzed by SDS-PAGE. […]

mammalian cells = experiment: Cellular toxicity of heterologous synthetase expression; type: cell-based; conditions: under the growth conditions used

Molecule | decay of the amino acid in mutant GFP (tandem MS) [1] | wild type peptide signals in tandem MS of mutant GFP sample (position 37 of GFP) | yield of mutant GFP containing the unnatural amino acid (T-REx™ CHO cells) [μg per 2×10^7 cells] | cellular toxicity of heterologous expression (mammalian cells)
[N-]=[N+]=Nc1ccc(C[C@H](N)C(=O)O)cc1 [pAzpa, p-azidophenylalanine] | Most of pAzpa decays to pAmpa | No wild type signals could be detected | ~1 | 
B1 |  |  |  | did not show any apparent cellular toxicity

— patent US20080166766A1, “Genetic incorporation of unnatural amino acids into proteins in mammalian cells” (The Scripps Research Institute, priority 2006, published 2008)
